Measurements reported in article PMC3092152 (Molecular oral microbiology, 2011).
Where no end group is shown, it is not given here.

system: S. mutans clinical strains; experiment: alamarBlue antimicrobial susceptibility test; format: cell-based, Streptococcus mutans; settings: preliminary experiments; 16 S. mutans strains; peptide concentrations 20 μg/ml or below

| Molecule | susceptibility of S. mutans strains to the peptide |
| --- | --- |
| HBD-1: human β-defensin, salivary cationic antimicrobial peptide (DHYNCVSSGGQCLYSACPIFTKIQGTCYRGKAKCCK; ends and bridges not checked; cysteine pairing not given here; UniProt P60022 33-68, looked up) | no susceptibility |
| histatin-5 | no susceptibility |
| lysozyme: host protein tested in preliminary experiments against 16 S. mutans strains (protein, UniProt P61626 19-148, looked up) Lysozyme C: KVFERCELARTLKRLGMDGYRGISLANWMCLAKWESGYNTRATNYNAGDRSTDYGIFQINSRYWCNDGKTPGAVNACHLSCSALLQDNIADAVACAKRVVRDPQGIRAWVAWRNRCQNRDVRQYVQGCGV | no susceptibility |
